Measurements as given in PubChem BioAssay AID1188 (EPA DSSTox, 2008).
Calls of active or inactive are those of the source.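 Rule for the calls: active = a concentration killing half the fathead minnows in the acute test was determined; inconclusive = some fish died but not half at top dose; inactive = no fish died even at top dose.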

What follows are compounds tested on Fathead minnow (Pimephales promelas) acute toxicity, lethality (assay: DSSTox (EPAFHM) EPA Fathead Minnow Acute Toxicity).
Source text: The EPA Fathead Minnow Acute Toxicity database was generated by the U.S. EPA Mid-Continental Ecology Division (MED) for the purpose of developing an expert system to predict acute toxicity from chemical structure based on mode of action considerations. […] A second valuable aspect of this database, from a QSAR modeling perspective, is the inclusion of general mode-of-action (MOA) classifications of acute toxicity response for individual chemicals derived from study results. MOA assignments are biologically based classifications, allowing definition of chemical similarity based upon biological activity instead of organic chemistry functional class as most commonly employed in QSAR study. MOA classifications should strengthen the scientific basis for construction of individual QSARs. However, it is cautioned that the broad MOA categorizations should not be construed to represent a single molecular mechanism; for example, CNS seizure agents and respiratory inhibitors are known to act through a variety of receptors. The EPA Fathead Minnow database and results have been used by EPA MED to build components of the ASTER prediction system, which incorporates MOA-based QSARs for the prediction of aquatic toxicity of environmental and industrial chemicals. Briefly, MOA classifications for individual chemicals, derived from experiments and provided in the EPA Fathead Minnow database, were used to derive substructural rules for assigning a new chemical to an MOA category based solely on chemical structure. Once a new chemical is assigned to an MOA category on this basis, the logP-based QSAR for that MOA category is applied.
The DSSTox EPAFHM database (available from the DSSTox Source URL) includes information pertaining to organic chemical class assignments (ChemClass_FHM), acute toxicity in fathead minnow (LC50_mg), dose-response assessments (LC50_Ratio, ExcessToxicityIndex), behavioral assessments (FishBehaviorTest), joint toxicity MOA evaluations of mixtures (MOA_MixtureTest), and additional MOA evaluation of fish acute toxicity syndrome (FishAcuteToxSyndrome) in rainbow trout. All of these indicators, to the extent available, were considered in the determination of MOA and, additionally, were used to determine a level of confidence in the MOA assignment for each chemical (MOA_Confidence). […] Activity Score is mapping of LOG10 (1/LC50_mmol) activity values spanning activity range [MIN, MAX] onto Integer 1-100 Activity range, where 100 is highest potency and 1 is lowest. If Activity Outcome is "active": Activity Score = 100 * INTEGER[(log10(1/ LC50_mmol) - MIN)/([…])].
Work on OCCOc1ccccc1 yielded a Potency of 2490 µM.
CCCCCCCCCN gave a Potency of 15 µM.
For CCCCCCCCCCCCCO, the outcome was “inactive; moa not determined either due to lack of toxicity at saturation or late test res”.
CCOC(=O)c1ccccc1O showed a Potency of 122 µM.
Compound Cc1cc(Cl)nc(N)n1 has a Potency of 982 µM.
Compound CC/C=C/CCO has a Potency of 2710 µM.
With CCC1(c2ccccc2)C(=O)NC(=O)NC1=O the Potency was 2080 µM.
ClC=C(Cl)Cl showed a Potency of 336 µM.
Work on CC1(C)[C@H]2CC[C@]1(C)C(=O)C2 yielded a Potency of 112 µM.
For N#Cc1cc(Cl)ccc1N, the Potency was 187 µM.
In the case of C=Cc1ccc(C(C)(C)C)cc1, the Potency was 3.06 µM.
Compound Cc1cocn1 has a Potency of 16700 µM.
In the case of CCCCCCCCCCCCCN, the Potency was 0.328 µM.
With CC1(N)CCC(C(C)(C)N)CC1 (stereo not drawn) the Potency was 383 µM.
O=[N+]([O-])c1ccc(O)cc1C(F)(F)F was tested, and the Potency was 44.1 µM.
With ClC(Cl)C(Cl)Cl the Potency was 121 µM.
NCCN showed a Potency of 3660 µM.
For C#CC(O)CCCCC (stereo not drawn), the Potency was 3.27 µM.
Work on CCOP(=S)(OCC)SCSc1ccc(Cl)cc1 yielded a Potency of 0.7 µM.
Work on COc1cccc(OC)c1C yielded a Potency of 133 µM.
CCCCCCCCOC(=O)c1ccccc1C(=O)OCCCCCCCC was tested, and the outcome was “inactive; moa not determined either due to lack of toxicity at saturation or late test res”.
OCC(Cl)(Cl)Cl showed a Potency of 2000 µM.
Compound CC(C)C1=CC2=CC[C@@H]3[C@](C)(CCC[C@@]3(C)C(=O)O)[C@H]2CC1 has a Potency of 7.87 µM.
CC1(C)CCC(C)(C)O1 was tested, and the Potency was 1310 µM.
CCc1cccc(CC)c1N(COC)C(=O)CCl gave a Potency of 18.5 µM.
In the case of CCNc1cccc(C)c1, the Potency was 366 µM.
Compound ClCCCCCCl has a Potency of 179 µM.
In the case of CCOC(N)=O, the Potency was 58800 µM.
Work on O=C(Oc1ccccc1)c1ccccc1O yielded a Potency of 5.51 µM.
With c1ccc2occc2c1 the Potency was 119 µM.
With CC(=O)c1ccc(Cl)cc1Cl the Potency was 68.9 µM.
Oc1ccc(Oc2ccccc2)cc1 gave a Potency of 26.6 µM.
In the case of CCCCSCCCC, the Potency was 24.5 µM.
For O=[N+]([O-])c1ccc(O)c([N+](=O)[O-])c1, the Potency was 59.2 µM.
Compound O=Cc1cccc(C(F)(F)F)c1 has a Potency of 5.31 µM.
CC(C)[C@@H]1CC[C@@H](C)C[C@H]1O gave a Potency of 121 µM.
In the case of CCCCCCCCCO, the Potency was 39.5 µM.
ClCc1ccc(CCl)cc1 gave a Potency of 0.223 µM.
With O=[N+]([O-])c1cccc(P(=O)(c2cccc([N+](=O)[O-])c2)c2cccc([N+](=O)[O-])c2)c1 the outcome was “inactive; moa not determined either due to lack of toxicity at saturation or late test res”.
Compound CCCCCCCCCCCC(C)=O has a Potency of 1.81 µM.
For c1ccc(CC2=NCCN2)cc1, the Potency was 1800 µM.
With C#CC(C)O (stereo not drawn) the Potency was 167 µM.
CC(C)CC=O showed a Potency of 37.7 µM.
Work on CN(C)c1ccc(/C=C/C=O)cc1 yielded a Potency of 36.7 µM.
Cn1c(=O)c2c(ncn2C)n(C)c1=O showed a Potency of 778 µM.
For COc1cc(C=O)ccc1O, the Potency was 551 µM.
In the case of O=Cc1ccc(Cl)cc1Cl, the Potency was 10.3 µM.
CC#N was tested, and the Potency was 40100 µM.
CCOC(=O)c1cccc(N)c1 gave a Potency of 302 µM.
For Oc1ccc(Oc2ccc(O)cc2)cc1, the Potency was 28.6 µM.
Work on Cc1cccc(Cl)n1 yielded a Potency of 1820 µM.
With Oc1cccc2ccccc12 the Potency was 32.1 µM.
Compound CSCCCCCCSC has a Potency of 56.6 µM.
For Cc1ccc(C)c(O)c1C, the Potency was 60.2 µM.
With CC1(C)OCC(CO)O1 (stereo not drawn) the Potency was 126000 µM.
For CCCCCc1ccccc1, the Potency was 11.5 µM.
For CCOP(=S)(OCC)SCSC(C)(C)C, the Potency was 0.0461 µM.
With CC1(C)CC(=O)CC(=O)C1 the Potency was 82000 µM.
For Clc1ccccc1Cl, the Potency was 64 µM.
CCCC(C)C1(CC)C(=O)N=C(O)NC1=O (stereo not drawn) showed a Potency of 199 µM.
For CNC(=O)O/N=C/C(C)(C)SC, the Potency was 4.52 µM.
In the case of CN(C)CCCCl, the Potency was 841 µM.
Compound CN(C)C(=O)Nc1ccc(Cl)c(Cl)c1 has a Potency of 60.9 µM.
Compound N#Cc1cc(Cl)c(O)c(Cl)c1 has a Potency of 129 µM.
In the case of O=[N+]([O-])c1ccc(F)cc1, the Potency was 201 µM.
With O=Cc1ccccc1F the Potency was 10.9 µM.
In the case of C#CC(O)CCCC (stereo not drawn), the Potency was 15.7 µM.
COC(C)=O gave a Potency of 4820 µM.
Compound Nc1ccc([N+](=O)[O-])cc1[N+](=O)[O-] has a Potency of 80.8 µM.
Work on COCCCNCc1cc(OC)c(OC)c(OC)c1 yielded a Potency of 505 µM.
Work on Oc1ccccc1O yielded a Potency of 83.7 µM.
In the case of Cc1ccccc1O, the Potency was 129 µM.
Work on OCC(Br)CBr (stereo not drawn) yielded a Potency of 326 µM.
